# Where “and” joins values, the source holds several entries; their conditions need not be identical. Equal entries are not always repeated. Entries after “also recorded” stand apart in the source; their conditions may differ.
# Columns and labels:
# Kunming mice [1] = test: Marrow micronucleus test on mice; type: in vivo; details: for micronuclei cells in 1000 polychromatic erythrocytes: dosed 4 days, test on day 5, II-2 120, II-85 74, cyclophosphane 60 mg/kg/day
# Procedure: Ten Kunming mice (Experimental Animal Center, China Medical University), half male and half female, were used. Compound II-2 was administered via gastric gavage at 120 mg/kg/day, and II-85 was administered to 74 mg/kg/day. The drug was administered for 4 days continuously. Marrow micronucleus test was performed on day 5.
# Mice in positive control group were administered cyclophosphane at 60 mg/kg/day. Mice in negative control group were administered normal saline at 0.1 ml/10 g/day. The drug was administered for 4 days continuously. Marrow micronucleus test was performed on day 5.
# The mice were killed by snapping neck, and then femur and sternum were excised, with blood and muscles removed, epiphysis cut off. Then marrow from sternum was squeezed to clean glassslide with bovine serum by using a pair of hemostatic forceps, or marrow on femur was flushed directly with bovine serum onto clean glassslide. Then the substance on glassslide were mixed well and smeared. Then the prepared and dried marrow smears were put into staining tank with methanol, fixed for 15 min, picked out to dry in the open air. After marrow smears were dried, it would be stained in freshly prepared Giemsa solution (1 volume of Giemsa stock solution and 9 volumes of pH 6.8 phosphate buffer) for 10 min, staining solution was flushed away with little stream. Then the smear was dried in the open air and observed under a microscope.
# α1 receptor [2] = test: Antagonism of accumulative constriction of rabbit aorta by noradrenaline (α-receptor agonist)
# Procedure: Then samples were flushed with K-H solution repeatedly, K-H solution was changed for every 20 min, and the samples were balanced for 60 min. After baseline recovered to be stable, doxazosin (10^−7 mol/L) was added, and noradrenaline (NA) (10^−8-6×10^−5 mol/L) was added by using the same method 15 min later.
# NA was also added by using the same method 15 min later.
# SD rats = test: Effects on blood pressure of SD rats anesthetized with urethane; type: in vivo; details: for diastolic blood pressure (DBP) / mean artery pressure (MAP) / systolic blood pressure (SBP): 4.0 mg/kg gastric gavage, n = 4
# Procedure: (§1) Four SD rats were anesthetized with urethane ([…]), after vital signs became stable, blood pressure was measured by common carotid intubation. After blood pressure became stable, compound II-2 was administered at 4.0 mg/kg via gastric gavage, blood pressure changes with time were observed and recorded.
# as §1, with “Five” for “Four”, “rats (provided by Experimental Animal Center, China Medical University)” for “rats”, “II-85” for “II-2”, “1.5” for “4.0”
# [3] = Experiment on acute toxicity; details: both sexes, Kunming, mouse, in vivo, po; mice, gastric gavage
# Description: (§2) Kunming mice (Experimental Animal Center, China Medical University) were used, half male and half female, 18-22 g, brief probability unit method was used to test the acute toxicity of the compound.
# (§3) Ten Kunming mice (Experimental Animal Center, China Medical University) were used, half male and half female, 18-22 g, brief probability unit method was used to test the acute toxicity of the compound.
# Kunming mice [4] = test: Experiment on acute toxicity; details: mouse, in vivo
# Description: as §2, §3
# Calcium Channel (Ca^2+) = test: Antagonism of accumulative constriction of rabbit aorta by CaCl2; details: calcium free high kalium depolarization
# Procedure: (§4) Rabbits were hit to be dizzy, with thoracic cavity quickly cut open, descending aorta exposed, connective tissues and surrounding fatty tissues (for hydroxytryptamine receptor antagonism test, endothelia should be removed with smooth stainless steel rod) removed, the aorta was cut into 3-5 mm vascular rings which were penetrated together with a steel wire with one end fixed on ventilation hook, another end on pressure tonotransducer. The aorta rings were put into a bath tube with 20 ml of nutritional solution, and the tension changes were recorded by using the recorder. The temperature of bath tube was maintained at 37±0.5° C., and mixed gas (95% O2+5% CO2) was ventilated at a rate of I-2 bubbles/second. The initial load of the sample was 1.5 g, nutritional solution was changed for every 20 min. The sample was balanced for 2 hours, and the experiment would be started when baseline became stable.
# After sample tension became stable, calcium K-H solution was used to flush the sample for 3 times, and incubated with calcium free K-H solution for 40 min. Calcium free high kalium solution was added into the sample for depolarization for 20 min, then CaCl2 (10^−6-10^−2 mol/L) was added into bath tube till maximal response was achieved, and then waveform was recorded. Then K-H solution was used to flush the sample repeatedly, the K-H solution was changed for every 20 min, and the sample was balanced for 60 min. […]
# After sample tension became stable, calcium K-H solution was used to flush the sample for 3 times, and incubated with calcium free K-H solution for 40 min. Calcium free high kalium solution was added into the sample for depolarization for 20 min, then CaCl2 (10^−6-10^−2 mol/L) was added into bath tube till maximal response was achieved, and then waveform was recorded. […] Calcium free high kalium solution was added into the sample for depolarization for 20 min, then amlodipine (10^−7 mol/L) was added into bath tube, which was incubated for 15 min, then CaCl2 (10^−6-10^−2 mol/L) was added by using the same method till maximal response was achieved, and then waveform was recorded. […]
# [5] = test system: AD constricted rabbit aorta; test: Relaxing effects on vascular smooth muscle constricted by adrenaline hydrochloride (AD) in vitro; details: Oryctolagus cuniculus; relaxation of rabbit aorta constricted by adrenaline (10^−5 mol/L); mean±SEM, n=5
# How it was run: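 Rabbit aortic strips in K-H solution precontracted with adrenaline hydrochloride (10^−5 mol/L) after a reproducible second contraction; compounds added cumulatively over ranges from 1×10^−10 up to 1×10^−2 mol/L depending on the compound series. Relaxation expressed as % of maximal relaxation versus −log concentration, mean±SEM, n=5.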
# [6] = test system: high kalium concentration constricted rabbit aorta; test: Relaxing effects on vascular smooth muscle constricted by high kalium concentration in vitro; details: relaxation of rabbit aorta constricted by high kalium solution (K+ 60 mmol/L), mean±SEM, n=5; for EC50: Oryctolagus cuniculus
# How it was run: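 Rabbit aortic rings pre-challenged with adrenaline (10^−5 mol/L), washed and re-equilibrated 60 min in K-H solution, then constricted with high-K+ solution; compounds added cumulatively over 1×10^−10–1×10^−2 mol/L depending on series. Relaxation expressed as % of maximal relaxation vs −log concentration; mean±SEM, n=5.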
# 5-HT2A receptor = 5-HT2A receptor (Oryctolagus cuniculus, UniProt G1SYA7); test: Antagonism of accumulative constriction of rabbit aorta by 5-HT
# Chain of 5-HT2A receptor (G1SYA7 1-469): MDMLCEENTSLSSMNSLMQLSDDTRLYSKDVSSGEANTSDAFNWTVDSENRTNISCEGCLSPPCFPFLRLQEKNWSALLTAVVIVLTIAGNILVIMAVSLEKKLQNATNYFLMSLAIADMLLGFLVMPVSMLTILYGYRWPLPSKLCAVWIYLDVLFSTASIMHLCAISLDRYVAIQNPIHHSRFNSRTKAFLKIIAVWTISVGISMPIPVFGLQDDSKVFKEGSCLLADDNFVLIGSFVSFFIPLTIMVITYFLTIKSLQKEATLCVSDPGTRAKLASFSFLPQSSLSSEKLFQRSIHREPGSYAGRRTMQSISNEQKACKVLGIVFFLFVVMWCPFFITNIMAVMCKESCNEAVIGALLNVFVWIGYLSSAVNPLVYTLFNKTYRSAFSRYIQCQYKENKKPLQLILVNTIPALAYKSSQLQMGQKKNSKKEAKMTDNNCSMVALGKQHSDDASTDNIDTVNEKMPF
# Procedure: as §4
# After sample tension became stable, a piece of waveform was recorded, 5-HT (10^−7-3×10^−4 mol/L) was added into the bath tube until maximal response, then waveform was recorded. […] 5-HT was also added by using the same method 20 min later. The maximal response was considered 100%, 5-HT constriction percentage was used as Y axis, negative logarithms of different concentrations of 5-HT were used as X axis to draw dose effective curve.
# After sample tension became stable, a piece of waveform was recorded, 5-HT (10^−8-10^−3 mol/L) was added into the bath tube until maximal response, then waveform was recorded. […] 5-HT was also added by using the same method 20 min later. The maximal response was considered 100%, 5-HT constriction percentage was used as Y axis, negative logarithms of different concentrations of 5-HT were used as X axis to draw dose effective curve (data were expressed in mean±SEM ( ? ), *P<0.05, **P<0.01, n=7).
# After sample tension became stable, a piece of waveform was recorded, 5-HT (10^−8-3×10^−4 mol/L) was added into the bath tube until maximal response, then waveform was recorded. […] 5-HT was also added by using the same method 20 min later. […]
# α1 receptor [7] = test: Antagonism of accumulative constriction of rabbit aorta by phenylephrine (α-receptor agonist); details: agonist (R)-phenylephrine
# Procedure: PE was also added by using the same method 15 min later. […] The curve was shown in FIG. 21 after positive drug doxazosine mesylate (10^−7 mol/L) was added.
# [8] = test system: NA constricted rabbit aorta; test: Relaxing effects on vascular smooth muscle constricted by noradrenaline (NA) in vitro; details: relaxation of rabbit aorta constricted by noradrenaline (10^−5 mol/L), mean±SEM, n=5; for EC50: Oryctolagus cuniculus
# Procedure: Adrenaline hydrochloride (AD) (10^−5 mol/L) was added into a bath tube to induce constriction, when maximal constriction was achieved, the sample was completely flushed, K-H solution was changed for every 20 min. Contents in the tube was balanced for 60 min, when baseline recovered to be stable, noradrenaline bitartrate (NA) (10^−5 mol/L) was added to induce constriction. When the later maximal constriction response was basically consistent with the former one, the prepared compound solutions were subsequently added, including compound II-84 to II-123 solutions (1×10^−10-1×10^−2 mol/L), compound II-124 to II-157 solutions (1×10^−10-1×10^−3 mol/L), to record the waveforms. Relaxing percentage of the compound was used as Y axis, maximal relaxation response was 100%, negative logarithm of different concentration was used as X axis, to draw dose effect curve (expressed in mean±SEM ( ? ), n=5).
smiles,measurement,setting,value
"O=P1(N(CCCl)CCCl)NCCCO1 (stereo not drawn) [cyclophosphane, reference compound]",micronuclei cells in 1000 polychromatic erythrocytes,Kunming mice [1],12%
"FC(F)(F)c1cccc(N2CCN(CCCCn3cnc4ccccc43)CC2)c1 [II-2, 1-(4-(4-(3-trifluoromethylphenyl)piperazine-1-yl)butyl)-1H-benzimidazole]",PA2 value to resist constriction of rabbit aorta by NA,α1 receptor [2],7.37±0.08
same,diastolic blood pressure (DBP),SD rats; 0 min post dosing,75.92 mmHg
same,mean artery pressure (MAP),SD rats; 0 min post dosing,91.50 mmHg
same,systolic blood pressure (SBP),SD rats; 0 min post dosing,122.66 mmHg
same,diastolic blood pressure (DBP),SD rats; 15 min post dosing,62.21 mmHg
same,mean artery pressure (MAP),SD rats; 15 min post dosing,73.40 mmHg
same,systolic blood pressure (SBP),SD rats; 15 min post dosing,95.77 mmHg
same,diastolic blood pressure (DBP),SD rats; 30 min post dosing,61.84 mmHg
same,mean artery pressure (MAP),SD rats; 30 min post dosing,74.52 mmHg
same,systolic blood pressure (SBP),SD rats; 30 min post dosing,99.88 mmHg
same,diastolic blood pressure (DBP),SD rats; 60 min post dosing,58.04 mmHg
same,mean artery pressure (MAP),SD rats; 60 min post dosing,72.77 mmHg
same,systolic blood pressure (SBP),SD rats; 60 min post dosing,102.22 mmHg
same,diastolic blood pressure (DBP),SD rats; 90 min post dosing,53.86 mmHg
same,mean artery pressure (MAP),SD rats; 90 min post dosing,68.81 mmHg
same,systolic blood pressure (SBP),SD rats; 90 min post dosing,98.71 mmHg
same,diastolic blood pressure (DBP),SD rats; 120 min post dosing,69.10 mmHg
same,mean artery pressure (MAP),SD rats; 120 min post dosing,83.12 mmHg
same,systolic blood pressure (SBP),SD rats; 120 min post dosing,111.16 mmHg
same,diastolic blood pressure (DBP),SD rats; 150 min post dosing,70.79 mmHg
same,mean artery pressure (MAP),SD rats; 150 min post dosing,84.47 mmHg
same,systolic blood pressure (SBP),SD rats; 150 min post dosing,111.82 mmHg
same,diastolic blood pressure (DBP),SD rats; 180 min post dosing,71.08 mmHg
same,mean artery pressure (MAP),SD rats; 180 min post dosing,84.83 mmHg
same,systolic blood pressure (SBP),SD rats; 180 min post dosing,112.34 mmHg
same,diastolic blood pressure (DBP),SD rats; 210 min post dosing,75.26 mmHg
same,mean artery pressure (MAP),SD rats; 210 min post dosing,88.54 mmHg
same,systolic blood pressure (SBP),SD rats; 210 min post dosing,115.12 mmHg
same,time until blood pressures recovered to those before drug dosing,"SD rats; anesthetized SD rats, gastric gavage",3.5 h
same,oral absorption,SD rats; in vivo bulk testing on rats,good oral absorption
same,hypotensive effects,"SD rats; rats, gastric gavage",good hypotensive effects; also recorded: obvious hypotensive effects
same,LD50,[3],362 mg/kg
same,therapeutic index,Kunming mice [4],great therapeutic index
same,toxicity,Kunming mice [4],mild toxicity
same,marrow micronucleus test result,Kunming mice [1],negative
same,micronuclei cells in 1000 polychromatic erythrocytes,Kunming mice [1],2.0±0.333%
same,PA2 value to resist constriction of rabbit aorta by CaCl2,Calcium Channel (Ca^2+),5.61±0.04
same,EC50,[5],1.86 µM
same,EC50,[6],4.57 µM
same,Kb,5-HT2A receptor,1.95 µM
"COc1cc2nc(N3CCN(C(=O)C4COc5ccccc5O4)CC3)nc(N)c2cc1OC (stereo not drawn) [doxazosin, reference compound]",PA2 value to resist constriction of rabbit aorta by NA,α1 receptor [2],7.52±0.04 and 7.76±0.24
same,PA2 value to resist constriction of rabbit aorta by PE,α1 receptor [7],7.43±0.12
"FC(F)(F)c1cccc(N2CCN(CCCCn3nnc4ccccc43)CC2)c1 [II-31, 1-(4-(4-(3-trifluoromethylphenyl)piperazine-1-yl)butyl)-1H-benzotriazole]",PA2 value to resist constriction of rabbit aorta by NA,α1 receptor [2],6.02±0.13
same,PA2 value to resist constriction of rabbit aorta by CaCl2,Calcium Channel (Ca^2+),6.56±0.032
same,EC50,[5],0.646 µM
same,EC50,[6],2.82 µM
same,Kb,5-HT2A receptor,0.188 µM
"Fc1ccc2c(C3CCN(CCOn4nnc5ccccc54)CC3)noc2c1 [II-99, N-(2-(1-benzotriazolyl)ethoxyl)-4-(3-(6-fluorobenzisoxazolyl))piperidine]",EC50,[8],91.2 µM
same,EC50,[5],55 µM
same,EC50,[6],550 µM
"c1ccc2nc(C3CCN(CCCCn4nnc5ccccc54)CC3)cnc2c1 [II-123, N-(4-(1H-benzotriazole-1-yl)butyl)-4-(2-quinoxalinyl)piperidine]",EC50,[8],29.5 µM
same,EC50,[5],14.8 µM
same,−logEC50,[6],3.13 ± 0.04
"COc1ccc2nnn(CCCN3CCC(c4noc5cc(F)ccc45)CC3)c2c1 [II-140, N-(3-(6-methoxyl-1H-benzotriazole-1-yl)propyl)-4-(3-(6-fluorobenzisoxazolyl))piperidine]",−logEC50,[8],5.31 ± 0.05
same,EC50,[5],5.89 µM
same,−logEC50,[6],5.02 ± 0.05
"c1ccc2c(c1)nnn2CCCCN1CCC(C2CCCCC2)CC1 [II-121, N-(4-(1H-benzotriazole-1-yl)butyl)-4-(4-cyclohexyl)piperidine]",EC50,[8],36.3 µM
same,EC50,[5],40.7 µM
same,−logEC50,[6],3.14 ± 0.05
